These results are taken from patent publication US11618909B2, “Acid-tolerant Saccharomyces cerevisiae and use thereof” (JIANGNAN UNIVERSITY, priority 2020, dated 2023).

The assay relates to mutant MTPfo-4. The experiment in a line: Tolerance to other acids by OD600, mutant MTPfo-4. Type of assay: cell-based, Saccharomyces cerevisiae. Conditions: pH 2.44, OD600 over 72 h. How it is done:
To analyze the tolerance of the mutant MTPfo-4 to other acids, 10 acids, including 2 inorganic acids of HCl and H3PO4, and 8 organic acids of lactic acid, malic acid, fumaric acid, succinate acid, tartaric acid, furoic acid, gluconic acid, and citric acid, were added exogenously in the present invention to analyze the acid tolerance of cells. The initial pH was controlled to 2.44. The cells were sampled every 12 h for consecutive 72 h. The acid tolerance of cells was analyzed by determining the OD600. […] The cells were sampled every 12 h for consecutive 72 h. The acid resistance of the cells was analyzed again by determining the OD600.
`O=C(O)/C=C/C(=O)O` [fumaric acid]: the “effect of the acid on the mutant MTPfo-4” value is given as “inhibitory effect”. As for `O=C(O)c1ccco1` [furoic acid], the entry is “inhibitory effect”; as for `O=C(O)CCC(=O)O` [succinic acid], “inhibitory effect”.

`O=C(O)C(O)C(O)C(=O)O` (stereo not shown) [tartaric acid]: the “effect of the acid on the mutant MTPfo-4” value is recorded as “inhibitory effect”.
